Results on 17 compounds are retold here after US10245261B2, “Substituted indol-5-ol derivatives and their therapeutic applications” (NantBioScience, Inc., priority 2013, dated 2019).

What all share (experiment): KinaseProfiler kinase assay
What all share (assay type): biochemical

For one assay, the target named is Ret(h) (Homo sapiens, UniProt P07949). Here is the method:
(§1) This example tests the inhibitory properties of representative compounds of the invention in c-Src kinase, Aurora-A kinase, Flt3 kinase, Ret kinase and TrkA Kinase assays (see, Daniele Fancelli et al, J. Med. Chem., 2006, 49 (24), pp 7247-7251). The KinaseProfiler™ Service Assay Protocols (Millipore) was used to test the kinase inhibiting activity of novel compounds from this invention. To do this, the buffer composition was as: 20 mM MOPS, 1 mM EDTA, 0.01% Brij-35, 5% Glycerol, 0.1% β-mercaptoethanol, 1 mg/mL BSA. Test compounds were initially dissolved in DMSO at the desired concentration, then serially diluted to the kinase assay buffer. In a final reaction volume of 25 μL, Aurora-A(h) (5-10 mU) is incubated with 8 mM MOPS pH 7.0, 0.2 mM EDTA, 200 μM LRRASLG (Kemptide), 10 mM MgAcetate and [γ^33P-ATP]. The reaction was initiated by the addition of the MgATP mix. After incubation for 40 minute at room temperature, the reaction was stopped by addition of 5 μL of a 3% phosphoric acid solution. 10 μL of the reaction was then spotted onto a P30 filtermat and washed three times for 5 minutes in 50 mM phosphoric acid and once in methanol prior to drying and scintillation counting. Wells containing substrate but no kinase and wells containing a phosphopeptide control were used to set 0% and 100% phosphorylation value, respectively.
(§2) The Kinase Hotspot℠ kinase assay was also used to test the compounds for IC50 or % inhibitions (Reaction Biology Corp.). Inhibitory IC50 values were determined by titration of compound at the optimal kinase concentration (Kinase EC50).

A further assay has as its target cSRC(h) (Homo sapiens, UniProt P12931). On the procedure: as §1, §2
The next assay has as its target T1, Aurora-A(h) (Homo sapiens, UniProt O14965).
T1 sequence (O14965 1-403): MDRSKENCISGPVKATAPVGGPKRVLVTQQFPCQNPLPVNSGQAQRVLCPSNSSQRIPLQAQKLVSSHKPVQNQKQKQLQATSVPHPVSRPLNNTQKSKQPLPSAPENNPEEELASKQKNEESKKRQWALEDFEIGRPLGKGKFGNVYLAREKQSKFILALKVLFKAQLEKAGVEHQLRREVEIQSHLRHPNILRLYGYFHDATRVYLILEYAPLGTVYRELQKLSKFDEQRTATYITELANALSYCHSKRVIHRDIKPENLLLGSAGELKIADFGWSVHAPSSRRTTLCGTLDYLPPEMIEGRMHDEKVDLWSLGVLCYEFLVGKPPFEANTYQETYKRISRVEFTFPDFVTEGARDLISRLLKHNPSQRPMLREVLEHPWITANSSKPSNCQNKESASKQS
To be noted: read-out: % Inhibition @1 μM Auroro-A. Here is the method: as §1, §2

The next assay has as its target T2, Flt3(h) (Homo sapiens, UniProt P36888).
T2 sequence (P36888 27-993): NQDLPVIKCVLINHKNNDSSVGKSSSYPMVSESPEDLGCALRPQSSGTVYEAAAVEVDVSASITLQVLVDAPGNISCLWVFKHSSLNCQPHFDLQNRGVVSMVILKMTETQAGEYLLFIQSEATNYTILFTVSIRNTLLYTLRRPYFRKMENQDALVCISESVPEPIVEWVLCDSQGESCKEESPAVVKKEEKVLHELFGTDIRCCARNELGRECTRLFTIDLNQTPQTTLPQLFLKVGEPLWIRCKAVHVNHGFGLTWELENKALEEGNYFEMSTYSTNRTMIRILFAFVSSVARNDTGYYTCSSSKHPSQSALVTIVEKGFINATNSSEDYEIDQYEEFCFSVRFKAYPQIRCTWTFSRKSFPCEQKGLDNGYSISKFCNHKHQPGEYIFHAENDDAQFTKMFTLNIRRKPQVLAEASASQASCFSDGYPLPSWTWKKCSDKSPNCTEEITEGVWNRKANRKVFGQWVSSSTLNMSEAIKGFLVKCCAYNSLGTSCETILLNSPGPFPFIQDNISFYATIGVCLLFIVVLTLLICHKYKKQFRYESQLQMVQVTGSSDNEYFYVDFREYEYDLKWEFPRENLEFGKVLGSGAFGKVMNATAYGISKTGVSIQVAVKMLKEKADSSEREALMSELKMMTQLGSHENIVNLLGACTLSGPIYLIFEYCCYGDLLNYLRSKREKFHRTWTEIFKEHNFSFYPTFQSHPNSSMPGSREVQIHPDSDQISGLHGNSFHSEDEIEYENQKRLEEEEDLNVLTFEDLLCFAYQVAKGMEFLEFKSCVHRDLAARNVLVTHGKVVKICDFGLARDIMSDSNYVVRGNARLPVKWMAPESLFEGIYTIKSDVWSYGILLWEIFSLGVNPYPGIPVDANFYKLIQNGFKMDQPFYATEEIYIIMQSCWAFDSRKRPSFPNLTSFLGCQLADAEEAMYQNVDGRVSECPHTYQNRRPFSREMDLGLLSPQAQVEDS
On the procedure: as §1, §2

For another assay, the target named is Abl(h) (Homo sapiens, UniProt P00519).
A further assay addresses KDR(h) (Homo sapiens, UniProt P35968).

KDR(h), sequence (P35968 20-1356): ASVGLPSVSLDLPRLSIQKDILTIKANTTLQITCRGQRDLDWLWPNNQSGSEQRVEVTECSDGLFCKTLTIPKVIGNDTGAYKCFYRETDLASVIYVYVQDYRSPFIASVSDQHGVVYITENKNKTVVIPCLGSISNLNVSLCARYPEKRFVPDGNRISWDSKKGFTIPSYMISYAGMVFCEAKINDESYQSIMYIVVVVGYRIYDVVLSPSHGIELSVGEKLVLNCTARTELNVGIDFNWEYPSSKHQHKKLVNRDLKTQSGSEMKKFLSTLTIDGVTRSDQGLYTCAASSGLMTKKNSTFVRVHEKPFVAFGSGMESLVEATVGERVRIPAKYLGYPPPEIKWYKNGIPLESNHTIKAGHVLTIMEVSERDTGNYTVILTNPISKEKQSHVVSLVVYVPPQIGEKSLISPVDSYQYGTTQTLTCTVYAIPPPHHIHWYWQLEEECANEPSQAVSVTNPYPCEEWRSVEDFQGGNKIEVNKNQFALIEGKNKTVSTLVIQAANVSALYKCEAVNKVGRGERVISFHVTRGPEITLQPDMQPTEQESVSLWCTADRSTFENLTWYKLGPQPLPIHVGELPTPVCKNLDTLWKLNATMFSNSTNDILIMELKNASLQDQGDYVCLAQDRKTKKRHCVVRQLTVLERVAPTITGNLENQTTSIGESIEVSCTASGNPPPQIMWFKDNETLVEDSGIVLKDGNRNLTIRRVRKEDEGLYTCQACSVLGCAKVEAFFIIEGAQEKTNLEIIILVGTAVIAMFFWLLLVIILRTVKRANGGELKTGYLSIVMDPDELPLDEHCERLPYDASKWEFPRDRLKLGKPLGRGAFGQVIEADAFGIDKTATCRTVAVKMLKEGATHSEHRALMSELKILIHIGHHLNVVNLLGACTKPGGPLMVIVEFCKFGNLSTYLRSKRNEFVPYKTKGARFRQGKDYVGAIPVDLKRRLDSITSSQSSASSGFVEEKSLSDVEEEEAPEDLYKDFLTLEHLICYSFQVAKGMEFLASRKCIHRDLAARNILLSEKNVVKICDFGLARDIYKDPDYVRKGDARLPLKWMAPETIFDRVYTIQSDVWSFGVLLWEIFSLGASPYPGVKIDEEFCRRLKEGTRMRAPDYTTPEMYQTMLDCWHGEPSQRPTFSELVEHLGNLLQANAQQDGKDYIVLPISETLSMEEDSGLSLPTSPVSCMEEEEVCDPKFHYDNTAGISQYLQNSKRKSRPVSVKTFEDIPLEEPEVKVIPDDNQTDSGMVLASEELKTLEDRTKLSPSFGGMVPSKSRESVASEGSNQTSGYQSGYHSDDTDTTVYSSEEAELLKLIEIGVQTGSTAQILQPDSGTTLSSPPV
cSRC(h), sequence (P12931 whole entry): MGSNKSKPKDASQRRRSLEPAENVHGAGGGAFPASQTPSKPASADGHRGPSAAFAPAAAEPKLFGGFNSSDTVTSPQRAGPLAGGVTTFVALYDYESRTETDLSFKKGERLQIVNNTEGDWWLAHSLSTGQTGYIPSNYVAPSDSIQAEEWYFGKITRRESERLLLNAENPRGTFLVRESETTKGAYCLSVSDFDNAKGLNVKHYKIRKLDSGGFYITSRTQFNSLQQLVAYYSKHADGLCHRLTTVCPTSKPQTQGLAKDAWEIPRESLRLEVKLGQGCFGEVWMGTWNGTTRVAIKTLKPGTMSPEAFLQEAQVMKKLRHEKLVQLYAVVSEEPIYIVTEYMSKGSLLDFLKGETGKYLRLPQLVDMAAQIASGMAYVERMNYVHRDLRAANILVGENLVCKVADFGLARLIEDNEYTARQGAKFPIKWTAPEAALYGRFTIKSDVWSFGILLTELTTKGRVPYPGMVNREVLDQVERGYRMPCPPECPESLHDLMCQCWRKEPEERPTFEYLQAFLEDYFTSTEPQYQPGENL
Abl(h), sequence (P00519 whole entry): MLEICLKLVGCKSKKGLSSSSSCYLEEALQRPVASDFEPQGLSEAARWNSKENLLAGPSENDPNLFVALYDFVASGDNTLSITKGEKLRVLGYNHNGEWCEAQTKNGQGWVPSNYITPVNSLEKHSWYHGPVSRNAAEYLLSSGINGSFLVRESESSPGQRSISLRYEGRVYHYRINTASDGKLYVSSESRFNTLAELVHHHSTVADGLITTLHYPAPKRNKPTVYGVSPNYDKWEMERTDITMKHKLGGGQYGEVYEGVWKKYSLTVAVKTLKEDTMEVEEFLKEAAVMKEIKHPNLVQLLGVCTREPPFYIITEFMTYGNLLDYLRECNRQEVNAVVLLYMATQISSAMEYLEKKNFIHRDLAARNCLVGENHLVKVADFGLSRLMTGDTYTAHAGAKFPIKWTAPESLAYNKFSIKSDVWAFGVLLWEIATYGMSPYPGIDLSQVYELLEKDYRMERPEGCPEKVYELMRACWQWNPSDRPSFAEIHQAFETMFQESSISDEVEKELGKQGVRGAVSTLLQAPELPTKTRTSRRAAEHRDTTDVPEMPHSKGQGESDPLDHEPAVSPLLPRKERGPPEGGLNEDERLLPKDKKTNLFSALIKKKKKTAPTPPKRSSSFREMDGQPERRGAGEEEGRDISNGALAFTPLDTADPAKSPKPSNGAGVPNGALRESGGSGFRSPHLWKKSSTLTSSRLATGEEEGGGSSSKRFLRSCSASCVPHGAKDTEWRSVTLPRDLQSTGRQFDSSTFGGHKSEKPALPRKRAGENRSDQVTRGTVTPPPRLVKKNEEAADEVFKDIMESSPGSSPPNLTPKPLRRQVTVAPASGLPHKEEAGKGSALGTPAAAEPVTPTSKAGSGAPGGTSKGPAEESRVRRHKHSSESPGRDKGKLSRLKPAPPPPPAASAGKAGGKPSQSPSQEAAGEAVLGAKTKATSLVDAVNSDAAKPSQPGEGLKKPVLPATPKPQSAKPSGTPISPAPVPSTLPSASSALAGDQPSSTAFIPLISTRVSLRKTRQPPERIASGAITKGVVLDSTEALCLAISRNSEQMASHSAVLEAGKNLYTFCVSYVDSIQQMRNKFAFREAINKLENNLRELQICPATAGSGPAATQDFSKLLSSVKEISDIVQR
Ret(h), sequence (P07949 29-1114): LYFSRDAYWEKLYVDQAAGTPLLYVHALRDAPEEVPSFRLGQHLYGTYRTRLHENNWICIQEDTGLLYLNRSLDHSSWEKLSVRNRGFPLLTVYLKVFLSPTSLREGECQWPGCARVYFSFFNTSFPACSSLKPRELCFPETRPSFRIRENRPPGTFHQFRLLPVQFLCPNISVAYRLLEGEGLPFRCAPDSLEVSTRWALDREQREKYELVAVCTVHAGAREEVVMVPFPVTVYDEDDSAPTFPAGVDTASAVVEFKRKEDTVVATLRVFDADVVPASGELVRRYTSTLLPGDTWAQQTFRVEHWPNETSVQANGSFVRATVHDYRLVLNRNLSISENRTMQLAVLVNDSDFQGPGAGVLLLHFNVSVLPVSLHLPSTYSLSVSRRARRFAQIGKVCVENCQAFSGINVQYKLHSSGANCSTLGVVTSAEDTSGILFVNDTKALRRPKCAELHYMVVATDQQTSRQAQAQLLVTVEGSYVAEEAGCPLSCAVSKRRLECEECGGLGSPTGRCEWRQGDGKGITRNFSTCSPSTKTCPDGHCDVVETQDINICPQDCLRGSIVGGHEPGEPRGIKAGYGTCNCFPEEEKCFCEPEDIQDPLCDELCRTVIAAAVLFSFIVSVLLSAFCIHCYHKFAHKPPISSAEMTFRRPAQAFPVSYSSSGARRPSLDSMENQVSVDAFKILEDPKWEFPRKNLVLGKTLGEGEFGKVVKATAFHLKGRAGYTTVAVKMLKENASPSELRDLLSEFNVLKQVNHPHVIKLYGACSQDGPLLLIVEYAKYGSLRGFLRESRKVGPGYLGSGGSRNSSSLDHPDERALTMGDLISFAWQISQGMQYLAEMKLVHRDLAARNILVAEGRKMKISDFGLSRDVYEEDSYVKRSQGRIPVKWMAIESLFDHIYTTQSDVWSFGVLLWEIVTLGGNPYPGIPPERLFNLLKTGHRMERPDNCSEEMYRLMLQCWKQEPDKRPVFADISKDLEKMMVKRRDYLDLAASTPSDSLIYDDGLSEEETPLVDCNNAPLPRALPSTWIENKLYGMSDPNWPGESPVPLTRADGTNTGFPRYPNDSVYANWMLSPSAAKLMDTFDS

By inhibition is commonly meant the relative decrease from the control value, in per cent. `Cc1cc2c(F)c(Oc3nc(Nc4cc(C5CC5)[nH]n4)cc(N4CCOCC4)n3)ccc2[nH]1` [Compound 13]: the inhibition at 1 µM came out at 100% on Ret(h); 100% against cSRC(h); 100% on Aurora-A(h); 101% at Flt3(h); 112% on Abl(h); 96% against KDR(h).

As to `Cc1cc2c(F)c(Oc3nc(Nc4cc(C5CC5)[nH]n4)cc(N4CC(O)C4)n3)ccc2[nH]1` [Compound 15], the inhibition at 1 µM against Ret(h) came out at 101%; against cSRC(h), 99%; at Aurora-A(h) it was 101%; on Flt3(h), 100%; against Abl(h), 108%; against KDR(h) it was 91%.

As for `COC1CCN(c2cc(Nc3cc(C4CC4)[nH]n3)nc(Oc3ccc4[nH]c(C)cc4c3F)n2)C1` (stereo not drawn) [Compound 16], the inhibition at 1 µM against Ret(h) worked out at 101%; at cSRC(h), 100%; on Aurora-A(h), 101%; against Flt3(h) it was 98%; against Abl(h) it was 103%; against KDR(h), 92%.

Consider `Cc1cc2c(F)c(Oc3nc(Nc4cc(C5CC5)[nH]n4)cc(N4CCC(N(C)C)C4)n3)ccc2[nH]1` (stereo not drawn) [Compound 17], for which the inhibition at 1 µM on Ret(h) is 98%; against cSRC(h), 98%; on Aurora-A(h) it was 100%; against Flt3(h), 100%; against Abl(h), 108%; against KDR(h), 93%.

As for `CC(=O)N1CCN(c2cc(Nc3cc(C4CC4)[nH]n3)nc(Oc3ccc4[nH]c(C)cc4c3F)n2)CC1` [Compound 18], the inhibition at 1 µM amounted to 97% on Ret(h); 99% at cSRC(h); 100% on Aurora-A(h); 100% on Flt3(h); 107% against Abl(h); 93% against KDR(h).

As for `Cc1cc2c(F)c(Oc3nc(Nc4cc(C5CC5)[nH]n4)cc(N4CCNC(=O)C4)n3)ccc2[nH]1` [Compound 19], the inhibition at 1 µM against Ret(h) amounted to 100%; against cSRC(h), 99%; on Aurora-A(h) it was 100%; against Flt3(h) it was 99%; against Abl(h), 108%; on KDR(h), 93%.

Regarding `Cc1cc2c(F)c(Oc3nc(Nc4cc(C5CC5)[nH]n4)cc(N4C[C@@H](C)N[C@@H](C)C4)n3)ccc2[nH]1` [Compound 20], the inhibition at 1 µM at Ret(h) stood at 100%; at cSRC(h), 99%; on Aurora-A(h) it was 99%; against Flt3(h) it was 100%; on Abl(h) it was 107%; against KDR(h) it was 93%.

For `Cc1cc2c(F)c(Oc3nc(Nc4cc(C5CC5)[nH]n4)cc(N4CCC(O)CC4)n3)ccc2[nH]1` [Compound 21], the inhibition at 1 µM against Ret(h) came to 100%; at cSRC(h) it was 98%; on Aurora-A(h) it was 100%; against Flt3(h), 101%; against Abl(h), 107%; on KDR(h), 87%.

`Cc1cc2c(F)c(Oc3nc(Nc4cc(C5CC5)[nH]n4)cc(N4CCC(F)CC4)n3)ccc2[nH]1` [Compound 22]: the inhibition at 1 µM is 101% against Ret(h); 100% against cSRC(h); 101% at Aurora-A(h); 100% against Flt3(h); 108% against Abl(h); 92% at KDR(h).

`Cc1cc2c(F)c(Oc3nc(Nc4cc(C5CC5)[nH]n4)cc(N4CCN(S(C)(=O)=O)CC4)n3)ccc2[nH]1` [Compound 23]: the inhibition at 1 µM on Ret(h) was 100%; against cSRC(h), 100%; on Aurora-A(h) it was 101%; on Flt3(h), 100%; at Abl(h) it was 108%; against KDR(h), 93%.

For `Cc1cc2c(F)c(Oc3nc(Nc4cc(C5CC5)[nH]n4)cc(N4CCN(c5ccccn5)CC4)n3)ccc2[nH]1` [Compound 25], the inhibition at 1 µM on Ret(h) was 101%; against cSRC(h), 100%; on Aurora-A(h), 101%; at Flt3(h), 100%; against Abl(h), 108%; on KDR(h) it was 93%.

`Cc1cc2c(F)c(Oc3nc(Nc4cc(C5CC5)[nH]n4)cc(N4CCN(c5cccnc5)CC4)n3)ccc2[nH]1` [Compound 26]: the inhibition at 1 µM at Ret(h) was 101%; on cSRC(h), 100%; on Aurora-A(h), 101%; at Flt3(h), 100%; on Abl(h), 109%; on KDR(h), 93%.

With `Cc1cc2c(F)c(Oc3nc(Nc4cc(C5CC5)[nH]n4)cc(N4CCN(c5ccncc5)CC4)n3)ccc2[nH]1` [Compound 27], the inhibition at 1 µM is 101% against Ret(h); 99% against cSRC(h); 101% on Aurora-A(h); 100% on Flt3(h); 108% against Abl(h); 92% at KDR(h).

In the case of `COCCN1CCN(c2cc(Nc3cc(C4CC4)[nH]n3)nc(Oc3ccc4[nH]c(C)cc4c3F)n2)CC1` [Compound 28], the inhibition at 1 µM amounted to 101% against Ret(h); 96% against cSRC(h); 101% at Aurora-A(h); 100% at Flt3(h); 108% against Abl(h); 89% against KDR(h).

As for `Cc1cc2c(F)c(Oc3nc(Nc4cc(C5CC5)[nH]n4)cc(N4CCOC(CN(C)C)C4)n3)ccc2[nH]1` (stereo not drawn) [Compound 30], the inhibition at 1 µM was determined as 101% at Ret(h); 99% at cSRC(h); 100% on Aurora-A(h); 100% at Flt3(h); 110% at Abl(h); 94% on KDR(h).

`CCN1CCN(c2cc(Nc3cc(C4CC4)[nH]n3)nc(Oc3ccc4[nH]c(C)cc4c3F)n2)CC1` [Compound 31]: the inhibition at 1 µM worked out at 102% against Ret(h); 104% on cSRC(h); 101% at Aurora-A(h); 101% against Flt3(h); 115% against Abl(h); 91% against KDR(h).

For `Cc1cc2c(F)c(Oc3nc(Nc4cc(C5CC5)[nH]n4)cc(N4CCN(CC(F)(F)F)CC4)n3)ccc2[nH]1` [Compound 38], the inhibition at 1 µM against Ret(h) worked out at 101%; against cSRC(h), 98%; on Aurora-A(h) it was 80%; at Flt3(h), 98%; against Abl(h) it was 108%; at KDR(h), 95%.
